{
  "source": "patent US8344009B2",
  "about": "“Substituted phenoxy thiazolidinediones as estrogen related receptor-á modulators” (priority 2007, dated 2013)",
  "key": {"ZDF fa/fa male rats": {"test_system": "ZDF fa/fa male rats", "assay": "ZDF diabetic rat model (3, 10, 30 mpk)", "type": "in vivo", "details": "for % Fat Day 18: Q-NMR; for FFA (NEFA) / Glucose / Triglycerides / cholesterol / ketone: 26 day ZDF rat efficacy study; for circulating glucose levels upon intraperitoneal delivery of insulin (ITT): FIG. 4, ITT at day 11", "excerpt": "The ZDF rat is a monogenic model of Type II Diabetes. […] This mutation results in a hyperphagic phenotype and the rodent develops obesity, hyperlipidemia, fasting hyperglycemia and Type II Diabetes. The model at 7 weeks of age develops hyperinsulinemia followed by a loss of glucose stimulated insulin secretion due to beta islet failure. Fifty ZDF fa/fa male rats were received at four weeks of age and allowed to acclimate for one week. At five week of age the animals were single housed in cages in a temperature-controlled room with 12-hour light/dark cycle. They were allowed ad libitum access to water and food and throughout the study were maintained on a Purina 5008 diet. Animals were sorted into five groups based first on glucose levels and then at body weight (average fed glucose levels and body weight at 7 weeks of age were 488 mg/dL and 282 grams, respectively). Animals were given Compound 1 orally once a day for 25 days in the morning at 3 mpk, 10 mpk and 30 mpk. A separate group was dosed daily with vehicle. The vehicle used for Compound 1 in this study consisted of 15% VE-TEPG, 30% PEG400 and 55% water. Food intake, body weight, glucose, insulin, triglyceride and free fatty acid levels were monitored throughout the study using blood collected from the tail vein. At day 11 of the study an insulin tolerance test (ITT) was done to evaluate peripheral insulin sensitivity. On day 19 an OGTT was done to assess glucose disposal rates. […] On the day of the necropsy the rats were bled through the orbital sinus under CO2:O2 anesthesia. Animals were sacrificed and several tissues were collected, frozen in liquid nitrogen and stored at −80° C. Serum plasma samples were prepared by centrifugation in EDTA containing tubes, transferred into 96 well plates and stored at −80° C."}, "AKR/J mice": {"test_system": "AKR/J mice", "assay": "AKR/J mouse obesity model", "type": "in vivo", "details": "for 3-hydroxy-butyrate / % body fat / FFA (Free Fatty Acids): NEFA (Non Esterified Fatty Acids) / Glucose / Lean Mass / Triglyceride / Insulin / Total body fat: five days; for Insulin: plasma; for Total body fat: high fat diet, Q-NMR", "procedure": "AKR/J mice are a polygenic model of diet-induced obesity characterized by hypertriglyceridemia and hyperinsulinemia. AKR/J mice were received at seven weeks of age and allowed to acclimate for one week and then placed on high fat diet (45% of the calories from fat) for five weeks. Animals were treated for five days with 3 mpk (mg/kg) and 30 mpk Compound 1 (Example 1) given orally twice a day. Food intake was measured at day four. On day five, prior to necropsies, body weight was recorded and body composition was measured by Q-NMR (Quantitative Nuclear Magnetic Resonance). Animals were anesthetized with carbon dioxide and blood was collected by cardiac puncture. Plasma was obtained by centrifugation and used to determine circulating insulin levels and clinical chemistries, including liver functions tests, using commercially available kits as per manufacturers instructions. Several tissues were harvested, frozen in liquid nitrogen and stored at −80° C. for further use."}},
  "note": "Marks after values point to notes of the source that are not given here.",
  "data": [
    {"compound": "COc1cc(/C=C2\\SC(=O)NC2=O)ccc1Oc1ccc(C#N)cc1C(F)(F)F", "note": "[Compound 1, 4-[4-(2,4-Dioxo-thiazolidin-5-ylidenemethyl)-2-methoxy-phenoxy]-3-trifluoromethyl-benzonitrile]", "values": [
      {"measurement": "Body weight change (0-25 day)", "setting": "ZDF fa/fa male rats; 3 mpk orally once a day", "value": "62.7*"},
      {"measurement": "Total food intake (0-25 days)", "setting": "ZDF fa/fa male rats; 3 mpk orally once a day", "value": 727},
      {"measurement": "% Fat Day 18", "setting": "ZDF fa/fa male rats; 3 mpk orally once a day", "value": "58** %"},
      {"measurement": "FFA (NEFA)", "setting": "ZDF fa/fa male rats; 3 mpk", "value": 0.65, "unit": "mM"},
      {"measurement": "Glucose", "setting": "ZDF fa/fa male rats; 3 mpk", "value": 584.88, "unit": "mg/dL"},
      {"measurement": "Triglycerides", "setting": "ZDF fa/fa male rats; 3 mpk", "value": 596.33, "unit": "mg/dL"},
      {"measurement": "cholesterol", "setting": "ZDF fa/fa male rats; 3 mpk", "value": 145.70, "unit": "mg/dL"},
      {"measurement": "ketone", "setting": "ZDF fa/fa male rats; 3 mpk", "value": 183.97, "unit": "µmol/L"},
      {"measurement": "Body weight change (0-25 day)", "setting": "ZDF fa/fa male rats; 10 mpk orally once a day", "value": 49.3},
      {"measurement": "Total food intake (0-25 days)", "setting": "ZDF fa/fa male rats; 10 mpk orally once a day", "value": 720},
      {"measurement": "% Fat Day 18", "setting": "ZDF fa/fa male rats; 10 mpk orally once a day", "value": "59** %"},
      {"measurement": "FFA (NEFA)", "setting": "ZDF fa/fa male rats; 10 mpk", "value": 0.54, "unit": "mM"},
      {"measurement": "Glucose", "setting": "ZDF fa/fa male rats; 10 mpk", "value": 549.63, "unit": "mg/dL"},
      {"measurement": "Triglycerides", "setting": "ZDF fa/fa male rats; 10 mpk", "value": "402.39** mg/dL"},
      {"measurement": "cholesterol", "setting": "ZDF fa/fa male rats; 10 mpk", "value": "156.08* mg/dL"},
      {"measurement": "ketone", "setting": "ZDF fa/fa male rats; 10 mpk", "value": 144.61, "unit": "µmol/L"},
      {"measurement": "Body weight change (0-25 day)", "setting": "ZDF fa/fa male rats; 30 mpk orally once a day", "value": "65.3*"},
      {"measurement": "Total food intake (0-25 days)", "setting": "ZDF fa/fa male rats; 30 mpk orally once a day", "value": "703**"},
      {"measurement": "% Fat Day 18", "setting": "ZDF fa/fa male rats; 30 mpk orally once a day", "value": "60*** %"},
      {"measurement": "FFA (NEFA)", "setting": "ZDF fa/fa male rats; 30 mpk", "value": 0.48, "unit": "mM"},
      {"measurement": "Glucose", "setting": "ZDF fa/fa male rats; 30 mpk", "value": 545.64, "unit": "mg/dL"},
      {"measurement": "Triglycerides", "setting": "ZDF fa/fa male rats; 30 mpk", "value": "320.94*** mg/dL"},
      {"measurement": "cholesterol", "setting": "ZDF fa/fa male rats; 30 mpk", "value": "169.92** mg/dL"},
      {"measurement": "ketone", "setting": "ZDF fa/fa male rats; 30 mpk", "value": "134.84* umol/L"},
      {"measurement": "fed free fatty acid levels", "setting": "ZDF fa/fa male rats; FIG. 3, versus vehicle control", "value": "reduces"},
      {"measurement": "fed triglyceride levels", "setting": "ZDF fa/fa male rats; FIG. 3, versus vehicle control", "value": "reduces"},
      {"measurement": "circulating glucose levels upon intraperitoneal delivery of insulin (ITT)", "setting": "ZDF fa/fa male rats", "value": "reduction in circulating glucose levels"},
      {"measurement": "circulating glucose levels upon intraperitoneal delivery of insulin (ITT)", "setting": "ZDF fa/fa male rats; listed as compound 1", "value": "normalizing glucose levels at the 30 minute time point"},
      {"measurement": "AUC of glucose during the ITT", "setting": "ZDF fa/fa male rats; FIG. 4 right panel, 0-60 and 0-120 minute time points", "value": "reduction of AUC of glucose"},
      {"measurement": "fasting glucose levels", "setting": "ZDF fa/fa male rats; FIG. 5, after a 16 hour fast", "value": "reduction in fasting glucose levels"},
      {"measurement": "plasma glucose following an oral glucose tolerance test", "setting": "ZDF fa/fa male rats; FIG. 6, OGTT day 19", "value": "lowering fasting plasma glucose"},
      {"measurement": "insulin release levels following an oral glucose tolerance test", "setting": "ZDF fa/fa male rats; FIG. 7", "value": "increase on insulin release levels"},
      {"measurement": "Hb1Ac levels", "setting": "ZDF fa/fa male rats; FIG. 8, after 26 days treatment", "value": "reduction in Hb1Ac levels"},
      {"measurement": "fed glucose levels", "setting": "ZDF fa/fa male rats; FIG. 8, first three weeks of the study", "value": "lowering of fed glucose levels"},
      {"measurement": "fed plasma insulin levels", "setting": "ZDF fa/fa male rats; FIG. 9", "value": "increasing fed plasma insulin levels"},
      {"measurement": "pancreatic insulin content", "setting": "ZDF fa/fa male rats; FIG. 9", "value": "increasing"},
      {"measurement": "3-hydroxy-butyrate", "setting": "AKR/J mice; 3 mpk orally twice a day", "value": "8.3 ± 0.9 ×10−5"},
      {"measurement": "% body fat", "setting": "AKR/J mice; 3 mpk orally twice a day", "value": "12.7 ± 0.8", "unit": "%"},
      {"measurement": "FFA (Free Fatty Acids): NEFA (Non Esterified Fatty Acids)", "setting": "AKR/J mice; 3 mpk orally twice a day", "value": "0.59 ± 0.07", "unit": "mM"},
      {"measurement": "Glucose", "setting": "AKR/J mice; 3 mpk orally twice a day", "value": "165.0 ± 5.0", "unit": "mg/dL"},
      {"measurement": "Lean Mass", "setting": "AKR/J mice; 3 mpk orally twice a day", "value": "20.2 ± 0.3", "unit": "g"},
      {"measurement": "Triglyceride", "setting": "AKR/J mice; 3 mpk orally twice a day", "value": "160.0 ± 18.9", "unit": "mg/dL"},
      {"measurement": "Insulin", "setting": "AKR/J mice; 3 mpk orally twice a day", "value": "9.6 ± 1.5", "unit": "ng/mL"},
      {"measurement": "3-hydroxy-butyrate", "setting": "AKR/J mice; 30 mpk orally twice a day", "value": "12.6 ± 1.8 ×10−5"},
      {"measurement": "% body fat", "setting": "AKR/J mice; 30 mpk orally twice a day", "value": "9.3 ± 0.6", "unit": "%"},
      {"measurement": "FFA (Free Fatty Acids): NEFA (Non Esterified Fatty Acids)", "setting": "AKR/J mice; 30 mpk orally twice a day", "value": "0.41 ± 0.05", "unit": "mM"},
      {"measurement": "Glucose", "setting": "AKR/J mice; 30 mpk orally twice a day", "value": "185.0 ± 10.01", "unit": "mg/dL"},
      {"measurement": "Lean Mass", "setting": "AKR/J mice; 30 mpk orally twice a day", "value": "20.0 ± 0.2", "unit": "g"},
      {"measurement": "Triglyceride", "setting": "AKR/J mice; 30 mpk orally twice a day", "value": "80.0 ± 9.8", "unit": "mg/dL"},
      {"measurement": "Insulin", "setting": "AKR/J mice; 30 mpk orally twice a day", "value": "2.8 ± 0.8", "unit": "ng/mL"},
      {"measurement": "Total body fat", "setting": "AKR/J mice; AKR/J mice, 3 mpk orally twice a day", "value": "3.87 ± 0.29", "unit": "g"},
      {"measurement": "Total body fat", "setting": "AKR/J mice; AKR/J mice, 30 mpk orally twice a day", "value": "2.7 ± 0.2", "unit": "g"},
      {"measurement": "body weight", "setting": "AKR/J mice; FIG. 1, AKR/J mice, 3 and 30 mpk twice a day, day five", "value": "reduces body weight"},
      {"measurement": "food intake", "setting": "AKR/J mice; FIG. 1, AKR/J mice, 3 and 30 mpk twice a day, day four", "value": "reduces food intake"}
    ]}
  ]
}
